Experimental data: US9744204B1, “Multipath nutritional supplement for memory, cognition, and coordination” (priority 2015, dated 2017)

Legend:
[1] = system: transgenic Drosophila melanogaster with an inducible tau; assay: Timed crawl test in transgenic flies with RU-486-inducible human tau; type: in vivo; conditions: RU-486-treated tau transgenic flies, crawl tests twice each week as flies aged (FIG. 1A, FIG. 2)
Experimental: FIGS. 1A and 1B show typical screens of transgenic Drosophila melanogaster with an inducible tau (FIG. 1A) or Abeta (FIG. 1B), which greatly reduces neural function with age. To assay for fly behavior changes as neural dysfunction progresses, timed crawl tests in which the time it takes individual flies to climb to the top of a test vial were performed twice each week as the flies aged. Select compositions were screened for use on the transgenic flies using the genetically targeted substances believed to act on longevity genes. Different dose concentrations were tested. Two hundred flies (1 fly of each sex in each of 100 vials) for each test condition were used. RU-486 was added to all fly samples except the untreated controls named Untreated (dashed blue line) and the A+P+T Control) about 4-5 days after flies were placed in vials. The first crawl tests were started about 9-10 days after insertion into vials and 5-6 days after RU addition (see FIGS. 1A and 1B). In Untreated Controls (dashed blue line), young flies typically crawl to the top of the vial quickly in 7-10 seconds, while older flies have progressively longer crawl times of up to 40 seconds or more with advancing age. The RU Controls (solid blue line) were treated with RU-486 without any helper substance and therefore have poor crawling tests and die early at 7 weeks (tau in FIG. 1A) or 5 weeks (Abeta in FIG. 1B). […]

[2] = system: transgenic Drosophila melanogaster with an inducible Abeta; assay: Timed crawl test in transgenic flies with RU-486-inducible human Abeta; type: in vivo; conditions: RU-486-treated Abeta transgenic flies (FIG. 1B)
Experimental: To assay for fly behavior changes as neural dysfunction progresses, timed crawl tests in which the time it takes individual flies to climb to the top of a test vial were performed twice each week as the flies aged. Select compositions were screened for use on the transgenic flies using the genetically targeted substances believed to act on longevity genes. Different dose concentrations were tested. Two hundred flies (1 fly of each sex in each of 100 vials) for each test condition were used. RU-486 was added to all fly samples except the untreated controls named Untreated (dashed blue line) and the A+P+T Control) about 4-5 days after flies were placed in vials. The first crawl tests were started about 9-10 days after insertion into vials and 5-6 days after RU addition (see FIGS. 1A and 1B). […] The single substances and substance combinations are shown by the one letter codes: A=Astragalus, P=Pterocarpus, T=L-Theanine, G=Genistein, B=Berberine, L=Lithium, and S=Selenium.
To assay for fly neural functional decline with age as Abeta, tau, or the Park gene is induced, crawl times were used to test substances initially picked from the genomics work.

rats = conditions: in rats; cited from earlier work

SMILES	crawl time / delay of neuronal dysfunction induced by human tau expression [1]	crawl time / protection against dementia induced by human Abeta expression [2]	neuroprotection (rats)
CC12CC3CC(C)(C1)CC(N)(C3)C2 [Mementin, reference compound]	works very well		
[Se] [Selenium]	can protect against dementia	can protect against dementia	
CCNC(=O)CC[C@H](N)C(=O)O [L-Theanine, gamma-glutamylethylamide]			neuroprotective
